# Patent US20260199240A1, “BIOMEDICAL APPLICATIONS OF AZOBENZENE-BASED LIPIDOIDS” (Trustees of Tufts College, priority 2022, published 2026)
# Columns and labels:
# [1] = Photoisomerization of Azo lipidoids in DMSO (UV-Vis absorption); type: physicochemical; details: for UV irradiation time until spectral changes level off (photostationary state): UV 365 nm, 5.40 mW/cm^2; for additional Vis irradiation time that reverses the spectral change: Vis >400 nm, 20 mW/cm^2
# Experimental: Azo lipidoid was prepared as 50 μM solution in anhydrous dimethyl sulfoxide (DMSO). The sample was irradiated with UV (365 nm for 6 s) and Vis light (>400 nm for 6 s), respectively. The power densities for 365 and >400 nm was 5.40 and 20 mW/cm^2, respectively.
# SAzo lipidoid was prepared as 30 μM solution in anhydrous dimethyl sulfoxide (DMSO). TAzo lipidoid was prepared as 15 μM solution in DMSO. These samples were irradiated with UV (365 nm for 6 s) and Vis light (>400 nm for 6 s), respectively. The power densities for 365 and >400 nm are 5.40 and 20 mW/cm^2, respectively.
# [2] = helper lipid; cited from earlier work
# [3] = Critical micelle concentration in aqueous solution; type: physicochemical
# [4] = system: 4T1 tumor cells; experiment: Cell cytotoxicity using CCK-8 assay; type: cell-based, mouse
# Experimental: In vitro cytotoxicity was assessed by the standard CCK-8 assay. To test the cytotoxicity of DSPC-Azo@GOx with or without UV/Vis light irradiation, 4T1 tumor cells were seeded in the basolateral chamber of a 24-well transwell plate at a density of 10^5 cells per well and cultured in 5% CO2 at 37° C. for overnight (16 h). Then, DSPC-Azo@GOx was added to the upper chamber. Then, the samples were irradiated using the UV/Vis light (irradiated for 5 min every 8 hours). After three irradiation, the cell viability was measured using CCK-8 kit according to the manufacturer's instruction.
UV irradiation time until spectral changes level off (photostationary state) [1],additional Vis irradiation time that reverses the spectral change [1],Compound,Tm (phase transition temperature) [2],headgroup surface area [2],also measured
6 s,6 s,CCCCCCCCCCCC(=O)Nc1ccc(/N=N/c2ccc(C[N+](C)(C)CC[N+](C)(C)Cc3ccc(/N=N/c4ccc(NC(=O)CCCCCCCCCCC)cc4)cc3)cc2)cc1 [TAzo lipidoid],,,
,,"CCCCCCCCCCCCCCCC(=O)OC[C@H](COP(=O)([O-])OCC[N+](C)(C)C)OC(=O)CCCCCCCCCCCCCCC [DPPC, dipalmitoylphosphatidylcholine]",41.3 °C,~ 0.665 nm^2,
,,"CCCCCCCCCCCCCC(=O)OC[C@H](COP(=O)([O-])OCC[N+](C)(C)C)OC(=O)CCCCCCCCCCCCC [DMPC, dimyristoylphosphatidylcholine]",24.1 °C,~ 0.665 nm^2,
6 s,6 s,CCCCCCCCCCCC(=O)Nc1ccc(/N=N/c2ccc(C[N+](C)(C)C)cc2)cc1 [Azo lipidoid],,,"critical micelle concentration (CMC) [3]: ≈ 30 μM; dose dependent cell viability ([4]; 4T1 cells, 24 h incubation): relatively good biocompatibility"
,,"CCCCCCCCCCCCCCCCCC(=O)OC[C@H](COP(=O)([O-])OCC[N+](C)(C)C)OC(=O)CCCCCCCCCCCCCCCCC [DSPC, distearoylphosphatidylcholine]",55 °C,~ 0.430 nm^2,
,,Glucose Oxidase [GOx],,,"cell viability with versus without UV/Vis light treatment ([4]; dialysis setup, 24 h): no significant differences in cell viabilities"
